# In paper PMC7756392, “Syntheses of Thailandepsin B Pseudo‐Natural Products: Access to New Highly Potent HDAC Inhibitors via Late‐Stage Modification” (Chemistry (Weinheim an Der Bergstrasse, Germany), 2020):
# Legend:
# Type in all cases: cell-based
# HL60 cells = assay: MTS cell viability assay, HL60; settings: for GI50 (in words): 72 h
# Description: hHDAC1/6: Activity assays were performed in OptiPlateTM-96 F black microplates (PerkinElmer). Commercial available enzymes (human recombinant HDAC1; BPS Bioscience, catalog no. 50051 and human recombinant HDAC6; BPS Bioscience, catalog no. 50006) were used. Total assay volume of 60 µL contains 42 µl of assay buffer (50 mM Tris -HCl, pH 8.0, 137 mM NaCl, 2.7 mM KCl, 1 mM MgCl2, 0.2 mM TCEP and 1 mg/mL bovine serum albumin), 10 µL of enzyme solution in assay buffer, 3 µL of increasing concentrations of inhibitors in DMSO and 5 μL of the fluorogenic substrate ZMAL (Z -(Ac)Lys-AMC) (126 μM). After incubation (90 min, 37 °C) 60 µL of stop solution, containing 5 μL Trichostatin A (TSA) (33 μM) and 10 μL trypsin (6 mg/mL) in trypsin buffer (Tris-HCl 50 mM, pH 8.0, NaCl 100 mM), were added. After incubation (30 min at 37 °C) fluorescence signal (λex = 390 nm, λem = 460 nm) was measured on a BMG LABTECH POLARstar OPTIMA plate reader (BMG Labtechnologies, Germany).10 hHDAC8: Enzyme was obtained from cooperation partners (Romier).11 Assay was performed as described before. […] After incubation (30 min at 37 °C) fluorescence signal was determined as mentioned for HDAC1/6.12 […]
# Cell proliferation was determined by using the Celltiter 96 AQueous nonradioactive Proliferation Assay (Promega). After 72h of incubation time with inhibitor or DMSO, 20 µL of a mixture (20:1) consisting of MTS (3-(4,5-dimethylthiazol-2-yl)-5-(3-carboxymethoxyphenyl)-2-(4-sulfophenyl-2H-tetrazolium) and PMS (phenazine methosulfate) were added to each well. Absorption was measured after another 2-4 h with a BMG LABTECH POLARstar OPTIMA plate reader (BMG Labtechnologies, Germany).
# Experiments were performed in triplicates and GI50 values were calculated using the software Origin 2019. […]
# CO2. […] After another 20 min of incubation, the fluorescence signal (λex = 390 nm, λem = 460 nm) was measured on a BMG LABTECH POLARstar OPTIMA plate reader (BMG Labtechnologies, Germany). […]
# HDAC in HL60 cells = assay: Cellular HDAC activity assay, HL60; settings: read-out: cellular HDAC inhibition IC50
# Description: Cellular trypsin-based activity assay:13 1 x 10^4 Hela cells (50 µL) were seeded in sterile dark 96-well microtiter plates (Perkin Elmer) and incubated overnight at 37 °C and 5% CO2 atmosphere. The next day, the medium was aspirated and the cells were incubated with different inhibitor concentrations or DMSO, diluted in 50 µL m edium without supplements and phenol red. After 2 h incubation time, 50 µL of the HDAC substrate MAL (Boc -Lys(Ac)-AMC) were added to a final concentration of 150 µM and the plate was incubated for 2 h at 37°C and 5%
# CO2. The reaction was stopped by adding 50 µL of stop solution (50 mM Tris, 137 mM NaCl, 1 mM MgCl2, 2.7 mM KCl, 1 µM TSA, 0.1% Igepal, 1 mg/ml Trypsin). After another 20 min of incubation, the fluorescence signal (λex = 390 nm, λem = 460 nm) was measured on a BMG LABTECH POLARstar OPTIMA plate reader (BMG Labtechnologies, Germany). […]
# acetylated α-tubulin = assay: Western blot, acetylated α-tubulin in HL60 cells; settings: for ac-tubulin: HL60 cells, 4 h
# Description: LABTECH POLARstar OPTIMA plate reader (BMG Labtechnologies, Germany).
# Western Blot: 2.5 x 10^5 HL60 cells were seeded in sterile 12-well plates and incubated with different concentrations of compound or DMSO for 4 h. Cells were washed with cold PBS, lysed with 90 µL SDS sample buffer (Cell Signaling, 62.5 mM Tris-HCl (pH 6.8 at 25°C), 2% w/v SDS, 10% v/v glycerol, 50 mM dithiothreitol, 0.01% bromophenol blue), shortly sonicated and heated to 95°C for 5 min. Cell extracts were used directly for SDS-PAGE or kept frozen at -20 […]
# For the SDS-PAGE, 7 µL cell lysate were loaded on a 12.5% gel and the gel was run at 150V for approximately 1 h, followed by the transfer to a nitrocellulose membrane. The membrane was blocked with 5% milk in TBS-T 0.1% for 1 h at room temperature and washed (3 x 5 min) with TBS-T before adding the antibodies. Western blot analysis was performed with the following primary antibodies: anti-acetylated α-tubulin (Sigma-Aldrich, 1:1000), anti-acetyl-histone 3 (Millipore, 1:2000) and anti-GAPDH (Sigma-Aldrich, 1:5000) and secondary antibodies: anti-mouse-IgG-HRP (Sigma-Aldrich, 1:10000) and anti-rabbit IgG-HRP (Sigma- […]
# Aldrich, 1:5000). The antibodies were all diluted in 3% milk in TBS-T 0.1%. Detection was performed via enhanced chemiluminescence (ECL Prime) using a FUSION-SL (PEQLAB) and the FUSION-CAPT software.
# Figure 4: Western blot of acetyl-α-tubulin, acetyl-H3 and GAPDH after treatment of HL60 cells with different concentrations of 33 or DMSO for 4 h. GAPDH was used as loading control, DMSO as negative control. […]
SMILES,growth inhibition at 5 μM (in words) (HL60 cells; 5 μM),IC50 (HDAC in HL60 cells) [µM],GI50 (in words) (HL60 cells),ac-tubulin (acetylated α-tubulin; 0.0001 µM) [%],ac-tubulin (acetylated α-tubulin; 0.01 µM) [%],ac-tubulin (acetylated α-tubulin; 0.1 µM) [%],ac-tubulin (acetylated α-tubulin; 1 µM) [%],levels of acetylated α-tubulin with increasing inhibitor concentration (in words) (acetylated α-tubulin; western blot)
CCCC[C@H]1NC(=O)C[C@@H](/C=C/CCC(=O)NO)OC(=O)C[C@H](O)[C@@H]([C@@H](C)CC)NC(=O)[C@@H](C)NC1=O [compound 8],did not inhibit growth,–,–,–,–,–,–,–
CCCC[C@H]1NC(=O)C[C@@H](/C=C/CCSC(C)=O)OC(=O)C[C@H](O[Si](C)(C)C(C)(C)C)[C@@H]([C@@H](C)CC)NC(=O)[C@@H](C)NC1=O [compound 32],–,66.3 ± 3.5,micromolar,–,–,–,–,–
CCCC[C@H]1NC(=O)C[C@@H](/C=C/CCSC(C)=O)OC(=O)C[C@H](O)[C@@H]([C@@H](C)CC)NC(=O)[C@@H](C)NC1=O [compound 33],–,0.0091 ± 0.0008,nanomolar,1.1,1.1,1.3,1.4,Constant levels
